Measured values taken from PubChem BioAssay (NCI).
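GI50 is the concentration that inhibits growth by half. TGI is the concentration that stops growth completely.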

Tests used:
Assay in all cases: NCI anticancer screen, dose series, 384-well format
NCI-H23 lung = tested on: NCI-H23 lung
NCI-H460 NSCLC = tested on: NCI-H460 NSCLC
MALME-3M melanoma = tested on: MALME-3M melanoma
UACC-62 melanoma = tested on: UACC-62 melanoma
SK-OV-3 ovarian = tested on: SK-OV-3 ovarian
HCT-15 colon = tested on: HCT-15 colon
PC-3 prostate = tested on: PC-3 prostate
SNB-19 CNS = tested on: SNB-19 CNS
786-0 renal = tested on: 786-0 renal
M14 melanoma = tested on: M14 melanoma
OVCAR-4 ovarian = tested on: OVCAR-4 ovarian
HT29 colon = tested on: HT29 colon
MOLT-4 leukemia = tested on: MOLT-4 leukemia
HL-60(TB) leukemia = tested on: HL-60(TB) leukemia
SK-MEL-28 melanoma = tested on: SK-MEL-28 melanoma
OVCAR-5 ovarian = tested on: OVCAR-5 ovarian
OVCAR-3 ovarian = tested on: OVCAR-3 ovarian
T-47D breast = tested on: T-47D breast
ACHN renal = tested on: ACHN renal
HOP-62 NSCLC = tested on: HOP-62 NSCLC
MCF7 breast = tested on: MCF7 breast
SF-295 CNS = tested on: SF-295 CNS
A549 NSCLC = tested on: A549 NSCLC
OVCAR-8 ovarian = tested on: OVCAR-8 ovarian
UO-31 renal = tested on: UO-31 renal
RXF 393 renal = tested on: RXF 393 renal
BT-549 breast = tested on: BT-549 breast
SW-620 colon = tested on: SW-620 colon
CAKI-1 renal = tested on: CAKI-1 renal
KM12 colon = tested on: KM12 colon
SF-268 CNS = tested on: SF-268 CNS
SNB-75 CNS = tested on: SNB-75 CNS
COLO 205 colon = tested on: COLO 205 colon
NCI-H522 lung = tested on: NCI-H522 lung
SR leukemia = tested on: SR leukemia
UACC-257 melanoma = tested on: UACC-257 melanoma
LOX IMVI melanoma = tested on: LOX IMVI melanoma
IGROV1 ovarian = tested on: IGROV1 ovarian
CCRF-CEM leukemia = tested on: CCRF-CEM leukemia
EKVX NSCLC = tested on: EKVX NSCLC
HS 578T breast = tested on: HS 578T breast
SN12C renal = tested on: SN12C renal
TK-10 renal = tested on: TK-10 renal
NCI-H226 lung = tested on: NCI-H226 lung
HOP-92 NSCLC = tested on: HOP-92 NSCLC
A498 renal = tested on: A498 renal
HCC-2998 colon = tested on: HCC-2998 colon
MDA-MB-435 melanoma = tested on: MDA-MB-435 melanoma
SF-539 CNS = tested on: SF-539 CNS
MDA-MB-468 breast = tested on: MDA-MB-468 breast
NCI/ADR-RES ovarian = tested on: NCI/ADR-RES ovarian
DU-145 prostate = tested on: DU-145 prostate
K-562 leukemia = tested on: K-562 leukemia
MDA-MB-231 breast = tested on: MDA-MB-231 breast
RPMI-8226 leukemia = tested on: RPMI-8226 leukemia
SK-MEL-5 melanoma = tested on: SK-MEL-5 melanoma
NCI-H322M lung = tested on: NCI-H322M lung

C[C@@H]1COCCN1c1nc(-c2cnc(N)cc2C(F)F)nc(N2[C@H](C)COC[C@@H]2C)n1
GI50 (NCI-H23 lung): 264 nM | TGI (NCI-H23 lung): 2600 nM | GI50 (NCI-H460 NSCLC): 38.2 nM | TGI (NCI-H460 NSCLC): 1510 nM | GI50 (MALME-3M melanoma): 27.1 nM | TGI (MALME-3M melanoma): 218 nM | GI50 (UACC-62 melanoma): 114 nM | TGI (UACC-62 melanoma): 899 nM | GI50 (SK-OV-3 ovarian): 53.3 nM | TGI (SK-OV-3 ovarian): 595 nM | GI50 (HCT-15 colon): 59 nM | TGI (HCT-15 colon): 1330 nM | GI50 (PC-3 prostate): 84.5 nM | TGI (PC-3 prostate): 1960 nM | GI50 (SNB-19 CNS): 711 nM | TGI (SNB-19 CNS): 16100 nM | GI50 ([…]-0 renal): 116 nM | TGI (786-0 renal): 2780 nM | GI50 (M14 melanoma): 117 nM | TGI (M14 melanoma): 1490 nM | GI50 (OVCAR-4 ovarian): 68.3 nM | TGI (OVCAR-4 ovarian): 376 nM | GI50 (HT29 colon): 281 nM | TGI (HT29 colon): 2440 nM | GI50 (MOLT-4 leukemia): 90.3 nM | TGI (MOLT-4 leukemia): 508 nM | GI50 (HL-60(TB) leukemia): 466 nM | TGI (HL-60(TB) leukemia): 1660 nM | GI50 (SK-MEL-28 melanoma): 121 nM | TGI (SK-MEL-28 melanoma): 1170 nM | GI50 (OVCAR-5 ovarian): 141 nM | TGI (OVCAR-5 ovarian): 2280 nM | GI50 (OVCAR-3 ovarian): 119 nM | TGI (OVCAR-3 ovarian): 10400 nM | GI50 (T-47D breast): 18.7 nM | TGI (T-47D breast): 156 nM | GI50 (ACHN renal): 81.2 nM | TGI (ACHN renal): 2550 nM | GI50 (HOP-62 NSCLC): 145 nM | TGI (HOP-62 NSCLC): 4220 nM | GI50 (MCF7 breast): 36.6 nM | TGI (MCF7 breast): 1360 nM | GI50 (SF-295 CNS): 41.4 nM | TGI (SF-295 CNS): 369 nM | GI50 (A549 NSCLC): 52.9 nM | TGI (A549 NSCLC): 3890 nM | GI50 (OVCAR-8 ovarian): 165 nM | TGI (OVCAR-8 ovarian): 11600 nM | GI50 (UO-31 renal): 290 nM | TGI (UO-31 renal): 16300 nM | GI50 (RXF 393 renal): 73.2 nM | TGI (RXF 393 renal): 4440 nM | GI50 (BT-549 breast): 97.7 nM | TGI (BT-549 breast): 1140 nM | GI50 (SW-620 colon): 319 nM | TGI (SW-620 colon): 11500 nM | GI50 (CAKI-1 renal): 123 nM | TGI (CAKI-1 renal): 4840 nM | GI50 (KM12 colon): 144 nM | TGI (KM12 colon): 3090 nM | GI50 (SF-268 CNS): 228 nM | TGI (SF-268 CNS): 7710 nM | GI50 (SNB-75 CNS): 54.9 nM | TGI (SNB-75 CNS): 2100 nM | GI50 (COLO 205 colon): 152 nM | TGI (COLO 205 colon): 3480 nM | GI50 (NCI-H522 lung): 128 nM | TGI (NCI-H522 lung): 1400 nM | GI50 (SR leukemia): 32.1 nM | TGI (SR leukemia): 131 nM | GI50 (UACC-257 melanoma): 316 nM | TGI (UACC-257 melanoma): 1560 nM | GI50 (LOX IMVI melanoma): 99 nM | TGI (LOX IMVI melanoma): 1100 nM | GI50 (IGROV1 ovarian): 36 nM | TGI (IGROV1 ovarian): 238 nM | GI50 (CCRF-CEM leukemia): 106 nM | TGI (CCRF-CEM leukemia): 1050 nM | GI50 (EKVX NSCLC): 122 nM | TGI (EKVX NSCLC): 1080 nM | GI50 (HS 578T breast): 40.5 nM | TGI (HS 578T breast): 269 nM | GI50 (SN12C renal): 95.9 nM | TGI (SN12C renal): 10900 nM | GI50 (TK-10 renal): 232 nM | TGI (TK-10 renal): 4550 nM | GI50 (NCI-H226 lung): 75.9 nM | TGI (NCI-H226 lung): 656 nM | GI50 (HOP-92 NSCLC): 84.9 nM | TGI (HOP-92 NSCLC): 1570 nM | GI50 (A498 renal): 23.1 nM | TGI (A498 renal): 407 nM | GI50 (HCC-2998 colon): 104 nM | TGI (HCC-2998 colon): 1610 nM | GI50 (MDA-MB-435 melanoma): 208 nM | TGI (MDA-MB-435 melanoma): 2570 nM | GI50 (SF-539 CNS): 116 nM | TGI (SF-539 CNS): 2450 nM | GI50 (MDA-MB-468 breast): 54 nM | TGI (MDA-MB-468 breast): 236 nM | GI50 (NCI/ADR-RES ovarian): 291 nM | TGI (NCI/ADR-RES ovarian): 6440 nM | GI50 (DU-145 prostate): 143 nM | TGI (DU-145 prostate): 10400 nM | GI50 (K-562 leukemia): 211 nM | TGI (K-562 leukemia): 1780 nM | GI50 (MDA-MB-231 breast): 61.4 nM | TGI (MDA-MB-231 breast): 14400 nM | GI50 (RPMI-8226 leukemia): 16.6 nM | TGI (RPMI-8226 leukemia): 48.5 nM | GI50 (SK-MEL-5 melanoma): 53.8 nM | TGI (SK-MEL-5 melanoma): 312 nM | GI50 (NCI-H322M lung): 95.7 nM | TGI (NCI-H322M lung): 2970 nM
